Measured values reported in ChEMBL document CHEMBL5038642, “Synthesis and Antiviral Activities of Neoechinulin B and Its Derivatives” (J Nat Prod, 2022).
Calls of active or inactive are those of the source. The rule behind the calls is not given here.

Columns and labels:
Huh7.5.1 = assay: Cytotoxicity against human Huh-7.5.1 cells assessed as reduction in cell viability measured at 72 hrs by MTT assay; assay type: functional
Hepatitis C virus = assay: Antiviral activity against HCV JFH-1 infected in human Huh-7.5.1 cells assessed as reduction in viral replication measured after 72 hrs by chemiluminescent enzyme immunoassay; assay type: functional, organism-based, Hepacivirus hominis
SARS-CoV-2 = assay: Antiviral activity against SARS-CoV-2 WK-251 infected in African green monkey Vero E6 cells expressing TMPRSS2 assessed as reduction in viral RNA replication incubated for 24 hrs by qRT-PCR analysis; assay type: functional, organism-based, Severe acute respiratory syndrome coronavirus 2; conditions: for IC50: Severe acute respiratory syndrome coronavirus 2, WK-251, Vero C1008, 24 h
[1] = Cytotoxicity against African green monkey Vero E6 cells expressing TMPRSS2 assessed as reduction in cell viability incubated for 24 hrs by DAPI staining based confocal microscopic analysis; assay type: toxicity, Vero C1008; conditions: chlorocebus sabaeus
Huh-7.5.1 [2] = assay: Antagonist activity at LXR (unknown origin) expressed in human Huh-7.5.1 cells transfected with luciferase reporter plasmid containing of LXRE assessed as reduction in T0901317-induced reporter activity at 30 uM measured after 48 hrs by luciferase reporter assay; assay type: cell-based
Huh-7.5.1 [3] = assay: Antagonist activity at LXR (unknown origin) expressed in human Huh-7.5.1 cells transfected with luciferase reporter plasmid containing of LXRE assessed as reduction in T0901317-induced reporter activity at 5 uM measured after 48 hrs by luciferase reporter assay; assay type: cell-based; conditions: filed as antagonist
Huh-7.5.1 [4] = assay: Antagonist activity at LXR (unknown origin) expressed in human Huh-7.5.1 cells transfected with luciferase reporter plasmid containing of LXRE assessed as reduction in T0901317-induced reporter activity at 10 uM measured after 48 hrs by luciferase reporter assay; assay type: cell-based; conditions: filed as antagonist

SMILES | CC50 (Huh7.5.1) [µM] | other results
C=c1[nH]c(=O)/c(=C/c2ccoc2)[nH]c1=O | > 20 | –
C=c1[nH]c(=O)/c(=C/c2ccc3ccccc3c2)[nH]c1=O | > 20 | –
C=c1[nH]c(=O)/c(=C/c2ccsc2)[nH]c1=O | > 20 | –
C=c1[nH]c(=O)/c(=C/c2ccc(C)cc2)[nH]c1=O | > 20 | –
C=c1[nH]c(=O)/c(=C/c2ccc(-c3ccccc3)cc2)[nH]c1=O | > 20 | –
C=c1[nH]c(=O)/c(=C/c2ccc3ccc4cccc5ccc2c3c45)[nH]c1=O | > 20 | IC50 (Hepatitis C virus; JFH-1, Huh-7.5.1, 72 h): 3.9 µM; IC90 (Hepatitis C virus; JFH-1, Huh-7.5.1, time 72 hrs): > 20 µM; IC50 (SARS-CoV-2): > 40 µM; IC90 (SARS-CoV-2; Severe acute respiratory syndrome coronavirus 2, WK-251, Vero C1008, time 24 hrs): > 40 µM; CC50 at 24 h [1]: > 100 µM
C=c1[nH]c(=O)/c(=C/c2ccc(C(=O)OC)cc2)[nH]c1=O | > 20 | –
C=c1[nH]c(=O)/c(=C/c2cc(C(C)(C)C)cc(C(C)(C)C)c2)[nH]c1=O | > 20 | –
C=c1[nH]c(=O)/c(=C/c2ccc(OC)c(OC)c2)[nH]c1=O | > 20 | –
C=c1[nH]c(=O)/c(=C/c2cc(OC)c(OC)c(OC)c2)[nH]c1=O | > 20 | –
C=c1[nH]c(=O)/c(=C/c2ccccc2)[nH]c1=O | > 20 | Activity (Huh-7.5.1 [2]): inactive
C=CC(C)(C)c1[nH]c2ccccc2c1C[C@@H]1NC(=O)[C@H](C)NC1=O [PREECHINULIN] | > 20 | –
C=c1[nH]c(=O)/c(=C/c2ccc(C(F)(F)F)cc2)[nH]c1=O | > 20 | IC50 (SARS-CoV-2): 9.1 µM
C=c1[nH]c(=O)/c(=C/c2ccc(N(C)C)cc2)[nH]c1=O | > 20 | –
C=c1[nH]c(=O)/c(=C/c2c[nH]c3ccccc23)[nH]c1=O | > 20 | –
C=c1[nH]c(=O)/c(=C/c2ccc(OC)cc2)[nH]c1=O | > 20 | –
C=c1[nH]c(=O)/c(=C/c2ccc(C(C)(C)C)cc2)[nH]c1=O | > 20 | Activity (Huh-7.5.1 [3]): Active
C=CC(C)(C)c1[nH]c2ccccc2c1/C=C1\NC(=O)C(C)(OC)NC1=O (stereo not drawn) [VARIECOLORIN H] | > 20 | –
C=CC(C)(C)c1[nH]c2ccccc2c1/C=c1\[nH]c(=O)c(=C)[nH]c1=O [NEOECHINULIN B] | > 20 | Activity (Huh-7.5.1 [4]): Active
